In patent US20140193341A1, “HUMAN INDUCED NEURONAL CELLS” (priority 2011, published 2014):
Entries after “also recorded” stand apart in the source; their conditions may differ.

Experiments:
Format in all cases: cell-based, human
sodium channel = tested on: sodium channel
Na+ channel = tested on: Na+ channel
GABA receptors = test: GABA puff evoked currents in hiN cells; details: GABA 1 mM puff, picrotoxin 50 μM
[1] = tested on: hiN cells integrated into host brain; test: Voltage-clamp recording of transplanted hiN cells in acutely prepared mouse brain slices; details: for spontaneous excitatory postsynaptic currents (sEPSCs) under glutamatergic block: NBQX 20 μM and APV 50 μM
glutamatergic receptor = test: Spontaneous postsynaptic currents of hiN cells in murine glial coculture; details: hiN cells held at −70 mV, murine glial monolayer coculture; NBQX/APV bath application
[2] = tested on: AMPA and NMDA glutamatergic receptors; test: Glutamate puff evoked postsynaptic currents in hiN cells; details: glutamate 1 mM puff, NBQX 20 μM and APV 50 μM applied together
secreted Aβ40 and Aβ42 = test: Aβ40/Aβ42 sandwich ELISA of hiN cell culture media with ibuprofen treatment; details: ibuprofen 250 μM
Procedure: sAPPβ ELISA was performed using BetaMar sAPP Beta ELISA, according to the manufacturer's instruction. Aβ quantification was performed by ELISAs (Cirrito et al., 2003). Media was conditioned for 48 hr prior to harvesting. Samples were analyzed for Aβ40 or Aβ42 using specific sandwich ELISAs. Briefly, Aβ40, and Aβ42 were captured using monoclonal antibodies targeted against amino acids 35-40 (HJ2.0), or 33-42 (HJ7.4) of Aβ, respectively. The antibodies HJ2.0, HJ5.1 and HJ7.4 were used. For Aβ40 and Aβ42 assays, a biotinylated central domain monoclonal antibody (HJ5.1) followed by streptavidin-poly-HRP-40 was used for detection. Assays were developed using Super Slow ELISA TMB and read on a VersaMax ELISA Microplate Reader. Aβ40, and Aβ42 standard curves were generated using purified peptides. The amount of Aβ was normalized to the cell density per well (relative to UND line as indicated in legend), and was expressed as pg/ml.

γ-secretase = test: Aβ ELISA of media from hiN cultures treated with γ-secretase inhibitor; details: DAPT 10 μM; hiN cell cultures
Procedure: APP ELISA was performed using a human APP ELISA kit (Invitrogen, Camarillo, Calif.), according to the manufacturer's instruction. Absorbance was read on a VersaMax ELISA Microplate Reader (Molecular Devices, Inc. Sunnyvale, Calif.) at 450 nm. The amount of APP was normalized to the total cell protein (determined with the DC Protein Assay Reagent kit; Bio-Rad, Hercules, Calif.). sAPPIβ and Aβ ELISA were performed on supernatant media from hiN cell cultures at 21 days after viral transduction. […] was performed using BetaMarkTM sAPP Beta ELISA kit (Covance, Princeton, N.J.), according to the manufacturer's instruction. The chemiluminescence was read on a microplate luminometer ([…] Plus, TECAN, Männedorf Switzerland). Aβ quantification was performed by ELISA as described previously (Cirrito et al., 2003). Media was conditioned for 48 hr prior to harvesting. Samples were analyzed for Aβ40 or Aβ42 using specific sandwich ELISAs. Briefly, Aβ40, and Aβ42 were captured using monoclonal antibodies targeted against amino acids 35-40 (HJ2.0), or 33-42 (HJ7.4) of Aβ, respectively. The antibodies HJ2.0, HJ5.1 and HJ7.4 were gifts from David M. Holtzman. […] All assays were developed using Super Slow ELISA TMB (Sigma) and read on a VersaMax ELISA Microplate Reader (Molecular Devices, Inc. Sunnyvale, Calif.) at 650 nm. […]

[3] = tested on: APP-positive puncta in hiN cells; test: APP immunostaining of hiN cells, APP-positive puncta area per cell; details: DAPT 10 μM, 18 hr
Procedure: Cells were fixed in 4% paraformaldehyde for 10 min at room temperature, followed by rinsing 3 times with phosphate-buffered saline (PBS). Cells were then permeabilized with 0.1% Triton X-100 in 1×PBS for 10 min at room temperature. After again rinsing 3 times with PBS, cells were incubated with blocking buffer containing 10% goat serum and 10 mg/ml BSA at room temperature for 1 hr. All primary antibodies were diluted in PBS. Cells were incubated with primary antibodies as listed at 4° C. for 12-16 hr, followed by the corresponding secondary antibody solutions in 37° C. for 1 hr. Cells were rinsed with 1×PBS three times followed by mounting of coverslips with anti-fade solution (Invitrogen). […]
Imaging was performed by laser-scanning confocal microscopy with a 63×/1.4 objective (LSM510, Can Zeiss) or by epifluorescence microscope (Olympus 1×71; Japan). hiN cell counts and fluorescence intensities were quantified by taking 10 to 35 images of randomly selected views per well. Subsequently, images were analyzed for cell counts and fluorescent intensity using Image J 1.42q software (National Institute of Health, USA). […]

`NC1=N[C@H](O)[C@H]2[C@H]3O[C@]4(O)O[C@@H]([C@@H](O)[C@@]2(N1)[C@@H]4O)[C@]3(O)CO` [tetrodotoxin] was tested, and the depolarization-induced action potentials (sodium channel) was “could be inhibited; also recorded: could be blocked” and the “fast inward Na+ currents” value (Na+ channel) was “sensitive”.

picrotoxin was tested, and the GABA evoked currents (GABA receptors) was “sensitive” and the “frequency and amplitude of spontaneous excitatory postsynaptic currents (sEPSCs)” value ([1]; picrotoxin 50 μM) was “increased in frequency and amplitude”.

With `N[C@H](CCCP(=O)(O)O)C(=O)O` [APV, D(−)-2-amino-5-phosphonovaleric acid] the “spontaneous postsynaptic currents in glial coculture” value (glutamatergic receptor) was “sensitive; also recorded: abolished”, the glutamate-mediated postsynaptic currents [2] was “could be blocked; also recorded: sensitive” and the “spontaneous excitatory postsynaptic currents (sEPSCs) under glutamatergic block” value [1] was “suppressed; also recorded: drastically reduced”.

In the case of `NS(=O)(=O)c1cccc2c1c([N+](=O)[O-])cc1nc(O)c(O)nc12` [NBQX, 2,3-dihydroxy-6-nitro-7 sulphamoyl-benzo[f]quinoxaline-2,3-dione], the “spontaneous postsynaptic currents in glial coculture” value (glutamatergic receptor) is reported as “sensitive; also recorded: abolished”, the glutamate-mediated postsynaptic currents [2] is reported as “could be blocked; also recorded: sensitive” and the “spontaneous excitatory postsynaptic currents (sEPSCs) under glutamatergic block” value [1] is reported as “suppressed; also recorded: drastically reduced”.

`CC(C)Cc1ccc(C(C)C(=O)O)cc1` (centres unmarked) [ibuprofen] was tested, and the “increased Aβ40 and Aβ42 generation in FAD hiN cell cultures” value (secreted Aβ40 and Aβ42; FAD (Presenilin mutant) hiN cell cultures) was “failed to suppress; also recorded: resistant” and the “elevated levels of secreted Aβ40 and Aβ42 in SAD hiN cell cultures” value (secreted Aβ40 and Aβ42; SAD hiN cell cultures) was “suppressed”.

With `C[C@H](NC(=O)Cc1cc(F)cc(F)c1)C(=O)N[C@H](C(=O)OC(C)(C)C)c1ccccc1` [DAPT] the “production of Aβ in media” value (γ-secretase) was “suppressed” and the “total APP-positive puncta area per cell, UND hiN cells” value [3] was “partially phenocopied; also recorded: significant increase”.
